According to US11180657B2, “Polysulfonated fluorescence dyes” (ATTO-TEC GmbH, priority 2017, dated 2021):
Marks after values point to notes of the source that are not given here.

Columns and labels:
Format in all cases: physicochemical
[1] = Lactone or pseudobase formation in aqueous weakly alkaline solution; details: aqueous weakly alkaline solutions; reversible
Description: Normally such lactones are adequately stabilized only in aprotic solvents such as acetone or chloroform. In protic solvents the carboxyl group is deprotonated and a slightly more short-wave absorbing and fluorescent zwitterion is formed. In the exemplary compounds, however, colorless compounds are formed due to the strong electron attraction of the indicated substituents, due to internal ester formation and the associated interruption of the conjugated system. If the carboxyl group is not free but is present as an ester or tertiary amide, so-called pseudobases are formed, through nucleophilic attack (hydroxide ions etc.) at the central carbon atom, which is stronger positivized by the electron-attracting substituents, which pseudobases are likewise colorless due to the interruption of the conjugated system. Both reactions are reversible; by changing the pH value, the dielectric constant (“polarity”) and/or the capability of hydrogen bridge bonding (“proticity”), the dye can be restored. Therefore such compounds can in principle be used as probes for the properties of their direct environment: Depending on the milieu, the molecules are present in colorless or colored form. Associated therewith is also a sort of fluorogenicity, because the longwave fluorescence appears only in the dye form.

[2] = Fluorescence maximum of the dye
Description: (§1) Examples of the compounds according to the invention are listed in Tables 2-6, where the structures as well as the absorption and fluorescence maxima are indicated. The spectra of selected compounds are shown FIGS. 5-18.

[3] = Absorption maximum of the dye
Description: as §1

[4] = Fluorescence quencher property (dye itself not fluorescent)
Description: A particular subgroup of the compounds according to the invention is fluorescence quenchers. These dyes are not fluorescent themselves, but can act as acceptors for the emission of fluorescent compounds. A widespread area of use of such quenchers is for instance the measurement of the geometry (distances, size, and arrangement of molecular groups) or the reactivity (enzyme activity, reaction speeds, etc.) using Förster resonance energy transfer (FRET). The fluorescence of the donor can only appear when the distance between donor and acceptor exceeds a critical value. Below this distance, the fluorescence of the donor is quenched by the acceptor (=quencher) which is not fluorescent by itself. An overview of the bioanalytical applications of the FRET technology is provided for example by A. Roda, M. Guardigli, E. Micheline, M. Mirasoli, Nanobioanalytical luminescence: Förster-type energy transfer methods, Anal. Bioanal. Chem. 393, 2009, 109-123.
Examples of quenchers according to the invention are compounds 14, 15, 16 and 17. These rhodamines represent a further development of the dyes designated as “violamines” because of their magenta-colored solutions, see for example H. E. Fierz-David, Künstliche Organische Farbstoffe [Artificial Organic Dyes], Springer-Verlag, Berlin, 1926, p. 276ff. However, also the structure of other dye classes may be modified in this way. Examples according to the invention include compounds 49, 50 and 51 from the class of carbopyronines.

| SMILES | λfl ([2]; solvent PBS pH 7.4) | λabs ([3]; solvent PBS pH 7.4) | also measured |
| --- | --- | --- | --- |
| O=C(O)C1CCCN1C(=O)c1ccccc1-c1c2cc(S(=O)(=O)O)/c(=N/Cc3ccc(S(=O)(=O)O)cc3S(=O)(=O)O)cc-2oc2cc(NCc3ccc(S(=O)(=O)O)cc3S(=O)(=O)O)c(S(=O)(=O)O)cc12 (stereo not drawn) [Compound 10] | 556^b nm |  | formation of colorless lactone or pseudobase [1]: easily form a lactone or pseudobase; λabs ([3]; solvent water/acetonitrile 1:1): 534^c nm |
| O=C(O)C1CCN(C(=O)c2ccccc2-c2c3cc(S(=O)(=O)O)/c(=N/Cc4ccc(S(=O)(=O)O)cc4S(=O)(=O)O)cc-3oc3cc(NCc4ccc(S(=O)(=O)O)cc4S(=O)(=O)O)c(S(=O)(=O)O)cc23)CC1 [Compound 11] | 550^b nm |  | formation of colorless lactone or pseudobase [1]: easily form a lactone or pseudobase; λabs ([3]; solvent water/acetonitrile 1:1): 529^c nm |
| O=C(O)c1ccccc1-c1c2cc/c(=N/c3ccc(S(=O)(=O)O)cc3)cc-2oc2cc(Nc3ccc(S(=O)(=O)O)cc3)ccc12 [Compound 14] |  | 560^b nm | fluorescence quencher (not fluorescent itself, acceptor for emission of fluorescent compounds) [4]: quenchers |
| O=C(O)c1ccccc1-c1c2cc(S(=O)(=O)O)/c(=N/c3ccc(S(=O)(=O)O)cc3)cc-2oc2cc(Nc3ccc(S(=O)(=O)O)cc3)c(S(=O)(=O)O)cc12 [Compound 15] |  |  | λabs ([3]; solvent water/acetonitrile 1:1): 558^c nm; fluorescence quencher (not fluorescent itself, acceptor for emission of fluorescent compounds) [4]: quenchers |
| CN(CCCC(=O)O)C(=O)c1ccccc1-c1c2cc(S(=O)(=O)O)/c(=N/c3ccc(S(=O)(=O)O)cc3)cc-2oc2cc(Nc3ccc(S(=O)(=O)O)cc3)c(S(=O)(=O)O)cc12 [Compound 16] |  |  | λabs ([3]; solvent water/acetonitrile 1:1): 566^c nm; fluorescence quencher (not fluorescent itself, acceptor for emission of fluorescent compounds) [4]: quenchers |
| CN(CCCC(=O)O)C(=O)c1ccccc1-c1c2cc/c(=N\c3ccc(S(=O)(=O)O)cc3)c(S(=O)(=O)O)c-2oc2c(S(=O)(=O)O)c(Nc3ccc(S(=O)(=O)O)cc3)ccc12 [Compound 17] |  |  | λabs ([3]; solvent water/acetonitrile 1:1): 555^c nm; fluorescence quencher (not fluorescent itself, acceptor for emission of fluorescent compounds) [4]: quenchers |
| CN(CCCC(=O)O)C(=O)c1ccccc1-c1c2cc(S(=O)(=O)O)/c(=N/CCc3ccc(S(=O)(=O)O)cc3)cc-2oc2cc(N)c(S(=O)(=O)O)cc12 [Compound 20] | 550^b nm |  | formation of colorless lactone or pseudobase [1]: easily form a lactone or pseudobase; λabs ([3]; solvent water/acetonitrile 1:1): 528^c nm |
| CC1(C)c2cc(Nc3ccc(S(=O)(=O)O)cc3)ccc2C(c2c(F)c(F)c(SCC(=O)O)c(F)c2F)=c2cc3c(cc21)=[N+](Cc1ccc(S(=O)(=O)O)cc1S(=O)(=O)O)CCC3 [Compound 49] |  | 648^b nm | fluorescence quencher (not fluorescent itself, acceptor for emission of fluorescent compounds) [4]: quenchers |
| CC1=CC(C)(C)[N+](Cc2ccc(S(=O)(=O)O)cc2S(=O)(=O)O)=c2cc3c(cc21)=C(c1c(F)c(F)c(SCC(=O)O)c(F)c1F)c1ccc(Nc2ccc(S(=O)(=O)O)cc2)cc1C3(C)C [Compound 50] |  | 669^b nm | fluorescence quencher (not fluorescent itself, acceptor for emission of fluorescent compounds) [4]: quenchers |
| CC1(C)c2cc(Nc3ccc(S(=O)(=O)O)cc3)ccc2C(c2c(F)c(F)c(SCC(=O)O)c(F)c2F)=c2cc3c(cc21)=[N+](Cc1ccc(S(=O)(=O)O)cc1S(=O)(=O)O)C(C)(C)CC3CS(=O)(=O)O (stereo not drawn) [Compound 51] |  | 650^b nm | fluorescence quencher (not fluorescent itself, acceptor for emission of fluorescent compounds) [4]: quenchers |
| CC1(C)C=C(CS(=O)(=O)O)c2cc3c(cc2=[N+]1CCCC(=O)O)Oc1cc2c(cc1N=3)CCCN2Cc1ccc(S(=O)(=O)O)cc1S(=O)(=O)O [Compound 99] | 700^b nm | 682^b nm |  |
| CC1(C)C=C(CS(=O)(=O)O)c2cc3c(cc2N1Cc1ccc(S(=O)(=O)O)cc1S(=O)(=O)O)Oc1cc2c(cc1=N3)C(CS(=O)(=O)O)=CC(C)(C)[N+]=2CCCC(=O)O [Compound 100] | 718^b nm | 701^b nm |  |
| CC1(C)CC(CS(=O)(=O)O)c2cc3c(cc2=[N+]1Cc1ccc(S(=O)(=O)O)cc1S(=O)(=O)O)Oc1cc(N)c2cc(S(=O)(=O)O)ccc2c1N=3 (stereo not drawn) [Compound 101] | 678^b nm | 647^b nm |  |
| CC1(C)c2cc3c(cc2N=c2cc4c(cc21)=[N+](CCCC(=O)O)C(C)(C)CC4CS(=O)(=O)O)CCCN3Cc1ccc(S(=O)(=O)O)cc1S(=O)(=O)O (stereo not drawn) [Compound 102] | 742^b nm | 721^b nm |  |
| CC1(C)c2cc3c(cc2N=c2cc4c(cc21)=[N+](CCCC(=O)O)C(C)(C)C=C4CS(=O)(=O)O)CCCN3Cc1ccc(S(=O)(=O)O)cc1S(=O)(=O)O [Compound 103] | 761^b nm | 740^b nm |  |
| CC1(C)c2cc3c(cc2N=c2cc4c(cc21)=[N+](CCCC(=O)O)C(C)(C)C=C4CS(=O)(=O)O)C(CS(=O)(=O)O)=CC(C)(C)N3Cc1ccc(S(=O)(=O)O)cc1S(=O)(=O)O [Compound 104] | 778^b nm | 758^b nm |  |
| Cc1cc(=O)[nH]c2cc(NCS(=O)(=O)O)ccc12 [Compound 105] | 413 nm | 349 nm | λfl ([2]; solvent ethanol): 406 nm; λabs ([3]; solvent ethanol): 355 nm |
| Cc1cc(=O)n(CC(=O)O)c2cc(NCS(=O)(=O)O)ccc12 [Compound 106] | 410^b nm | 350^b nm |  |
| Cc1cc(=O)n(CC(=O)O)c2cc(NCc3ccc(S(=O)(=O)O)cc3S(=O)(=O)O)ccc12 [Compound 107] | 413^b nm | 351^b nm |  |
| Cc1cc(=O)n(CC(=O)O)c2cc(NCS(=O)(=O)O)c(S(=O)(=O)O)cc12 [Compound 108] | 411^b nm | 348^b nm |  |
| Cc1cc(=O)n(CC(=O)O)c2cc(NCc3ccc(S(=O)(=O)O)cc3S(=O)(=O)O)c(S(=O)(=O)O)cc12 [Compound 109] | 418^b nm | 349^b nm |  |
| Cc1c(CC(=O)O)c(=O)oc2cc(NCS(=O)(=O)O)ccc12 [Compound 110] | 353^b nm | 354^b nm |  |
| Cc1c(CC(=O)O)c(=O)oc2cc(NCc3ccc(S(=O)(=O)O)cc3S(=O)(=O)O)c(S(=O)(=O)O)cc12 [Compound 111] | 449^b nm | 348^b nm |  |
| Cc1c(CC(=O)O)c(=O)oc2cc(Nc3nc(Cl)nc(NCCS(=O)(=O)O)n3)ccc12 [Compound 112] | 416^b nm | 338^b nm |  |
| Cc1cc(=O)n(CC(=O)O)c2cc(Nc3nc(Cl)nc(NCCS(=O)(=O)O)n3)ccc12 [Compound 114] | 385^b nm | 338^b nm |  |
| Cc1cc(=O)n(CC(=O)O)c2cc(Nc3nc(NCCS(=O)(=O)O)nc(NCCS(=O)(=O)O)n3)ccc12 [Compound 115] | 383^b nm | 335^b nm |  |
